Measurements as given in PubChem BioAssay AID248 (DTP/NCI, 2004).
Where “and” joins values, the source holds several entries; their conditions need not be identical. Identical values can stand only once. Toxic doses and inconclusive results are not listed.

System: L1210 leukemia ip in BDF1 mice, survival T/C
Assay: NCI In Vivo Anticancer Drug Screen. Data for tumor model L1210 Leukemia (intraperitoneal) in B6D2F1 (BDF1) mice
Details: higher = longer survival
How it was run: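 In this screen, tumor-bearing mice given compound are compared to those given vehicle, and their survival values are reported as a treated-to-control quotient.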

N=c1ccn2c(n1)OC1C(O)C(CO)OC12 (stereo not drawn)
T/C (endpoint: mean survival time, dose: 0.79 mg/kg/injection, schedule: Q03HX024 (ip), vehicle: water): 110 % of control | T/C (endpoint: mean survival time, dose: 1.56 mg/kg/injection, schedule: Q01DX009 (ip), vehicle: water): 103 % of control | T/C (endpoint: mean survival time, dose: 3.13 mg/kg/injection, schedule: Q01DX009 (ip), vehicle: water): 110 % of control | T/C (endpoint: mean survival time, dose: 100.0 mg/kg/injection, schedule: Q04DX003 (ip), vehicle: water): 169 % of control | T/C (endpoint: mean survival time, dose: 118.0 mg/kg/injection, schedule: Q01DX009 (ip), vehicle: clinical formulation): 203 % of control | T/C (endpoint: mean survival time, dose: 118.0 mg/kg/injection, schedule: Q01DX009 (ip), vehicle: saline): 195 % of control | T/C (endpoint: mean survival time, dose: 177.0 mg/kg/injection, schedule: Q01DX009 (ip), vehicle: clinical formulation): 213 % of control | T/C (endpoint: mean survival time, dose: 177.0 mg/kg/injection, schedule: Q01DX009 (ip), vehicle: saline): 230 % of control | T/C (endpoint: mean survival time, dose: 200.0 mg/kg/injection, schedule: Q04DX003 (ip), vehicle: water): 180 % of control | T/C (endpoint: mean survival time, dose: 266.0 mg/kg/injection, schedule: Q01DX009 (ip), vehicle: clinical formulation): 250 % of control | T/C (endpoint: mean survival time, dose: 266.0 mg/kg/injection, schedule: Q01DX009 (ip), vehicle: saline): 258 % of control | T/C (endpoint: mean survival time, dose: 400.0 mg/kg/injection, schedule: Q01DX009 (ip), vehicle: clinical formulation): 254 % of control | T/C (endpoint: mean survival time, dose: 400.0 mg/kg/injection, schedule: Q01DX009 (ip), vehicle: saline): 246 % of control | T/C (endpoint: mean survival time, dose: 400.0 mg/kg/injection, schedule: Q04DX003 (ip), vehicle: water): 215 % of control | T/C (endpoint: mean survival time, dose: 600.0 mg/kg/injection, schedule: Q01DX009 (ip), vehicle: clinical formulation): 101 % of control | T/C (endpoint: mean survival time, dose: 1200.0 mg/kg/injection, schedule: Q01DX001 (ip), vehicle: saline): 158 % of control | T/C (endpoint: mean survival time, dose: 1600.0 mg/kg/injection, schedule: Q01DX001 (ip), vehicle: saline): 154 % of control and 161 % of control and 166 % of control | T/C (endpoint: mean survival time, dose: 2000.0 mg/kg/injection, schedule: Q01DX001 (ip), vehicle: saline): 161 % of control and 170 % of control and 172 % of control | T/C (endpoint: median survival time, dose: 5.0 mg/kg/injection, schedule: Q03HX008 (ip), vehicle: saline): 161 % of control | T/C (endpoint: median survival time, dose: 12.5 mg/kg/injection, schedule: Q01DX009 (ip), vehicle: saline): 157 % of control | T/C (endpoint: median survival time, dose: 25.0 mg/kg/injection, schedule: Q01DX009 (ip), vehicle: saline): 178 % of control | T/C (endpoint: median survival time, dose: 25.0 mg/kg/injection, schedule: Q03HX024 (ip), vehicle: water): 170 % of control and 250 % of control | T/C (endpoint: median survival time, dose: 50.0 mg/kg/injection, schedule: Q01DX009 (ip), vehicle: saline): 184 % of control | T/C (endpoint: median survival time, dose: 50.0 mg/kg/injection, schedule: Q01DX009 (ip), vehicle: steriod suspending solution): 170 % of control | T/C (endpoint: median survival time, dose: 50.0 mg/kg/injection, schedule: Q03HX016 (ip), vehicle: saline): 211 % of control | T/C (endpoint: median survival time, dose: 50.0 mg/kg/injection, schedule: Q03HX024 (ip), vehicle: saline): 255 % of control | T/C (endpoint: median survival time, dose: 50.0 mg/kg/injection, schedule: Q03HX024 (ip), vehicle: water): 205 % of control and 230 % of control | T/C (endpoint: median survival time, dose: 100.0 mg/kg/injection, schedule: Q01DX009 (ip), vehicle: saline): 190 % of control and 205 % of control | T/C (endpoint: median survival time, dose: 100.0 mg/kg/injection, schedule: Q01DX009 (ip), vehicle: steriod suspending solution): 185 % of control | T/C (endpoint: median survival time, dose: 100.0 mg/kg/injection, schedule: Q01DX009 (oral), vehicle: saline): 166 % of control | T/C (endpoint: median survival time, dose: 100.0 mg/kg/injection, schedule: Q03HX008 (ip), vehicle: saline): 155 % of control | T/C (endpoint: median survival time, dose: 100.0 mg/kg/injection, schedule: Q03HX016 (ip), vehicle: saline): 233 % of control | T/C (endpoint: median survival time, dose: 100.0 mg/kg/injection, schedule: Q03HX024 (ip), vehicle: saline): 322 % of control | T/C (endpoint: median survival time, dose: 100.0 mg/kg/injection, schedule: Q03HX024 (ip), vehicle: water): 250 % of control and 270 % of control | T/C (endpoint: median survival time, dose: 100.0 mg/kg/injection, schedule: Q04DX003 (oral), vehicle: water): 111 % of control | T/C (endpoint: median survival time, dose: 108.0 mg/kg/injection, schedule: Q01DX008 (ip), vehicle: water): 179 % of control | T/C (endpoint: median survival time, dose: 120.0 mg/kg/injection, schedule: Q01DX001 (ip), vehicle: water): 166 % of control | T/C (endpoint: median survival time, dose: 160.0 mg/kg/injection, schedule: Q01DX001 (ip), vehicle: water): 166 % of control | T/C (endpoint: median survival time, dose: 180.0 mg/kg/injection, schedule: Q01DX008 (ip), vehicle: water): 182 % of control | T/C (endpoint: median survival time, dose: 200.0 mg/kg/injection, schedule: Q01DX001 (ip), vehicle: saline): 122 % of control | T/C (endpoint: median survival time, dose: 200.0 mg/kg/injection, schedule: Q01DX001 (ip), vehicle: water): 105 % of control | T/C (endpoint: median survival time, dose: 200.0 mg/kg/injection, schedule: Q01DX009 (ip), vehicle: saline): 219 % of control and 222 % of control and 234 % of control | T/C (endpoint: median survival time, dose: 200.0 mg/kg/injection, schedule: Q01DX009 (ip), vehicle: steriod suspending solution): 235 % of control | T/C (endpoint: median survival time, dose: 200.0 mg/kg/injection, schedule: Q01DX009 (oral), vehicle: saline): 188 % of control | T/C (endpoint: median survival time, dose: 200.0 mg/kg/injection, schedule: Q03HX008 (ip), vehicle: saline): 177 % of control | T/C (endpoint: median survival time, dose: 200.0 mg/kg/injection, schedule: Q03HX016 (ip), vehicle: saline): 255 % of control | T/C (endpoint: median survival time, dose: 200.0 mg/kg/injection, schedule: Q03HX024 (oral), vehicle: water): 116 % of control | T/C (endpoint: median survival time, dose: 200.0 mg/kg/injection, schedule: Q04DX003 (ip), vehicle: saline): 177 % of control | T/C (endpoint: median survival time, dose: 200.0 mg/kg/injection, schedule: Q04DX003 (ip), vehicle: water): 160 % of control | T/C (endpoint: median survival time, dose: 216.0 mg/kg/injection, schedule: Q01DX009 (ip), vehicle: water): 100 % of control and 105 % of control | T/C (endpoint: median survival time, dose: 300.0 mg/kg/injection, schedule: Q01DX008 (ip), vehicle: water): 202 % of control | T/C (endpoint: median survival time, dose: 300.0 mg/kg/injection, schedule: Q01DX009 (ip), vehicle: saline): 221 % of control | T/C (endpoint: median survival time, dose: 360.0 mg/kg/injection, schedule: Q01DX009 (ip), vehicle: water): 104 % of control and 111 % of control | T/C (endpoint: median survival time, dose: 400.0 mg/kg/injection, schedule: Q01DX001 (ip), vehicle: water): 100 % of control | T/C (endpoint: median survival time, dose: 400.0 mg/kg/injection, schedule: Q01DX001 (oral), vehicle: water): 120 % of control | T/C (endpoint: median survival time, dose: 400.0 mg/kg/injection, schedule: Q01DX009 (ip), vehicle: saline): 223 % of control and 262 % of control and 311 % of control | T/C (endpoint: median survival time, dose: 400.0 mg/kg/injection, schedule: Q01DX009 (ip), vehicle: steriod suspending solution): 315 % of control | T/C (endpoint: median survival time, dose: 400.0 mg/kg/injection, schedule: Q01DX009 (oral), vehicle: saline): 205 % of control | T/C (endpoint: median survival time, dose: 400.0 mg/kg/injection, schedule: Q03HX008 (ip), vehicle: saline): 188 % of control | T/C (endpoint: median survival time, dose: 400.0 mg/kg/injection, schedule: Q03HX024 (ip), vehicle: saline): 88 % of control | T/C (endpoint: median survival time, dose: 400.0 mg/kg/injection, schedule: Q03HX024 (ip), vehicle: water): 100 % of control | T/C (endpoint: median survival time, dose: 400.0 mg/kg/injection, schedule: Q04DX003 (ip), vehicle: saline): 150 % of control | T/C (endpoint: median survival time, dose: 400.0 mg/kg/injection, schedule: Q04DX003 (ip), vehicle: water): 165 % of control | T/C (endpoint: median survival time, dose: 500.0 mg/kg/injection, schedule: Q01DX008 (ip), vehicle: water): 164 % of control | T/C (endpoint: median survival time, dose: 500.0 mg/kg/injection, schedule: Q01DX009 (ip), vehicle: saline): 211 % of control | T/C (endpoint: median survival time, dose: 600.0 mg/kg/injection, schedule: Q01DX009 (ip), vehicle: saline): 232 % of control | T/C (endpoint: median survival time, dose: 700.0 mg/kg/injection, schedule: Q01DX009 (ip), vehicle: saline): 156 % of control | T/C (endpoint: median survival time, dose: 800.0 mg/kg/injection, schedule: Q01DX001 (ip), vehicle: water): 120 % of control | T/C (endpoint: median survival time, dose: 800.0 mg/kg/injection, schedule: Q01DX009 (ip), vehicle: saline): 94 % of control | T/C (endpoint: median survival time, dose: 800.0 mg/kg/injection, schedule: Q01DX009 (oral), vehicle: saline): 122 % of control | T/C (endpoint: median survival time, dose: 800.0 mg/kg/injection, schedule: Q01DX009 (oral), vehicle: water): 94 % of control | T/C (endpoint: median survival time, dose: 800.0 mg/kg/injection, schedule: Q04DX003 (ip), vehicle: water): 200 % of control | T/C (endpoint: median survival time, dose: 800.0 mg/kg/injection, schedule: Q04DX003 (oral), vehicle: saline): 166 % of control | T/C (endpoint: median survival time, dose: 1600.0 mg/kg/injection, schedule: Q01DX001 (ip), vehicle: saline): 155 % of control | T/C (endpoint: median survival time, dose: 1600.0 mg/kg/injection, schedule: Q01DX001 (ip), vehicle: water): 155 % of control | T/C (endpoint: median survival time, dose: 1600.0 mg/kg/injection, schedule: Q04DX003 (ip), vehicle: water): 100 % of control | T/C (endpoint: median survival time, dose: 1600.0 mg/kg/injection, schedule: Q04DX003 (oral), vehicle: saline): 244 % of control | T/C (endpoint: median survival time, dose: 2000.0 mg/kg/injection, schedule: Q01DX001 (oral), vehicle: water): 150 % of control
